In one assay the test system is Bacillus anthracis. In words: microbe, parasite or virus in culture. It is filed as cell-based, Bacillus anthracis Sterne 7700 pXO1-/pXO2-. The settings on record: 9 h, read-out: MIC (minimum inhibitory concentration).
The next assay has as its system Enterococcus faecalis. In words: Minimum inhibitory concentration (MIC), microtiter broth dilution method. Type of assay: cell-based, Enterococcus faecalis ATCC 19433 (CECT 481). The settings on record: TSB broth, 37°C for 9 h, mean of triplicates. On the technique in general: Dilution methods test growth across graded concentrations, often in twofold steps.
Another assay concerns Pseudomonas aeruginosa. The assay is described as above. Type of assay: cell-based, Pseudomonas aeruginosa ATCC 15692 (CECT 4122). The settings on record: read-out: MIC (minimum inhibitory concentration).
The subject of another assay is Staphylococcus aureus. Described as above. Type of assay: cell-based, Staphylococcus aureus ATCC 12600 (CECT 86). The settings on record: read-out: MIC (minimum inhibitory concentration).
The next assay concerns Staphylococcus epidermis. Described as above. Type of assay: cell-based, Staphylococcus epidermidis ATCC 1798 (CECT 231). The settings on record: TSB broth, 37°C for 9 h, mean of triplicates.
Assay [1] deals with murine macrophage J774 cell line. In words: Cytotoxicity, MTT colorimetric cell viability assay. The note with it: Mus musculus, J774 macrophages, 24 and 48 h of exposure (time not given), read-out: Cytoxicity (IC50). It is filed as cell-based.
The test system of a further assay is P. aeruginosa. Briefly: Capacity to inhibit the formation of bacterial biofilms. It is filed as cell-based. The settings on record: 37°C for 48 h without agitation, viable count (cfu/ml), Fig. 1.
For another assay, the system named is S. aureus. It is filed as cell-based.
The mark [2] stands for this setting: TSB broth, 37°C for 9 h, mean of triplicates.

Structures are written as SMILES. In brackets after ≈: the same amount, converted by molar mass. Counter-ions that a name gives are not always drawn. Like-named read-outs stand apart in the source and are kept apart here. Some results are limits rather than exact numbers.

Consider `ONCc1cc(C(F)(F)F)cc(C(F)(F)F)c1` [Example 6, N-(3,5-bis-trifluoromethylbenzyl)-hydroxylamine], for which the MIC in the assay on Bacillus anthracis lay within 125 to 625 µM (≈ 32.4 to 162 µg/mL); against Enterococcus faecalis, 500 to 1000 µM (≈ 130 to 259 µg/mL); in the assay with Pseudomonas aeruginosa (setting [2]), 1000 to 2000 µM (≈ 259 to 518 µg/mL); in the assay with Staphylococcus aureus (setting [2]), 250 to 500 µM (≈ 64.8 to 130 µg/mL); against Staphylococcus epidermis, 125 to 250 µM (≈ 32.4 to 64.8 µg/mL). The IC50 (usually the concentration that inhibits the measured activity by half) in assay [1] turned out to be 2070 µM.

With `COc1ccc(CNO)c(OC)c1` [Example 4, N-(2,4-dimethoxybenzyl)-hydroxylamine], the MIC in the assay on Bacillus anthracis lay within 125 to 250 µM (≈ 22.9 to 45.8 µg/mL); in the assay on Enterococcus faecalis, 500 to 1000 µM (≈ 91.6 to 183 µg/mL); with Pseudomonas aeruginosa (setting [2]), 1000 to 2000 µM (≈ 183 to 366 µg/mL); in the assay on Staphylococcus aureus (setting [2]), 500 to 1000 µM (≈ 91.6 to 183 µg/mL); with Staphylococcus epidermis, 125 to 250 µM (≈ 22.9 to 45.8 µg/mL). Besides, the biofilm formation result in the assay on P. aeruginosa and with S. aureus was “inhibit” each time. Moreover, in assay [1], the IC50 turned out to be 2270 µM.

For the compound `ONCc1ccccc1` [Comp 7, N-Benzyl-hydroxylamine hydrochloride, reference compound], the MIC with Bacillus anthracis, in the assay with Pseudomonas aeruginosa (9 h) and in the assay on Staphylococcus aureus (9 h) was above 4000 µM throughout. Moreover, the IC50 in assay [1] was above 4000 µM.

Take `ONCc1ccc(F)cc1` [Example 3, N-(4-fluorobenzyl)-hydroxylamine]: the MIC in the assay with Bacillus anthracis was in the range of 125 to 625 µM (≈ 17.6 to 88.2 µg/mL); against Enterococcus faecalis, 500 to 1000 µM (≈ 70.6 to 141 µg/mL); in the assay with Pseudomonas aeruginosa (setting [2]) it was 1000 to 2000 µM (≈ 141 to 282 µg/mL); with Staphylococcus aureus (setting [2]), 500 to 1000 µM (≈ 70.6 to 141 µg/mL); against Staphylococcus epidermis, 125 to 250 µM (≈ 17.6 to 35.3 µg/mL). Besides, the biofilm formation entry in the assay with P. aeruginosa and with S. aureus was “inhibit” each time. Moreover, the IC50 in assay [1] worked out at 1300 µM.

As for `ONCC1CCCCC1` [Example 2, N-cyclohexylmethyl-hydroxylamine], the MIC in the assay with Bacillus anthracis lay within 250 to 500 µM (≈ 32.3 to 64.6 µg/mL); against Enterococcus faecalis, 500 to 1000 µM (≈ 64.6 to 129 µg/mL); with Pseudomonas aeruginosa (setting [2]), 125 to 250 µM (≈ 16.2 to 32.3 µg/mL); with Staphylococcus aureus (setting [2]) it was 250 to 500 µM (≈ 32.3 to 64.6 µg/mL); with Staphylococcus epidermis it was 250 to 500 µM (≈ 32.3 to 64.6 µg/mL). Further, the biofilm formation result in the assay on P. aeruginosa and with S. aureus was “inhibit” each time. In addition, in assay [1], the IC50 came to 1330 µM.

As for `COc1cccc(OC)c1CNO` [Comp 8, N-(2,6-Dimethoxybenzyl)-hydroxylamine, reference compound], the MIC in the assay on Bacillus anthracis, with Pseudomonas aeruginosa (setting [2]) and in the assay with Staphylococcus aureus (setting [2]) was above 4000 µM each time.

Turning to `COc1ccc(CNO)c(C)c1` [Example 5, N-(4-methoxy-2-methylbenzyl)-hydroxylamine], the MIC was 125 to 625 µM (≈ 20.9 to 105 µg/mL) in the assay with Bacillus anthracis; 250 to 500 µM (≈ 41.8 to 83.6 µg/mL) in the assay with Enterococcus faecalis; 1000 to 2000 µM (≈ 167 to 334 µg/mL) with Pseudomonas aeruginosa (setting [2]); above 4000 µM in the assay with Staphylococcus aureus (setting [2]); 250 to 500 µM (≈ 41.8 to 83.6 µg/mL) in the assay with Staphylococcus epidermis. Further, in assay [1], the IC50 turned out to be 2180 µM.

For `ONCCc1ccccc1` [Example 1, N-phenethyl-hydroxylamine], the MIC lay within 250 to 500 µM (≈ 34.3 to 68.6 µg/mL) in the assay on Bacillus anthracis, 1000 to 2000 µM (≈ 137 to 274 µg/mL) in the assay on Enterococcus faecalis, 500 to 1000 µM (≈ 68.6 to 137 µg/mL) in the assay on Pseudomonas aeruginosa (setting [2]) and 250 to 500 µM (≈ 34.3 to 68.6 µg/mL) in the assay with Staphylococcus aureus (setting [2]). The biofilm formation result with P. aeruginosa and in the assay on S. aureus was “inhibit” in each case. The half-inhibitory concentration (IC50) in assay [1] came to 1890 µM.

Values taken from patent publication EP2902382A1, “Primary hydroxylamines and uses thereof” (Fundació Institut de Recerca Biomèdica IRB (Barcelona), priority 2014, dated 2015).
